How the values were obtained:
[1] = molecular target: T1, Tyrosine-protein phosphatase non-receptor type 1 (Homo sapiens, UniProt P18031); test: Inhibition of human PTP1B catalytic domain expressed in Escherichia coli assessed as pNPP hydrolysis measured every 30 secs for 15 mins
T1 sequence (P18031 whole entry): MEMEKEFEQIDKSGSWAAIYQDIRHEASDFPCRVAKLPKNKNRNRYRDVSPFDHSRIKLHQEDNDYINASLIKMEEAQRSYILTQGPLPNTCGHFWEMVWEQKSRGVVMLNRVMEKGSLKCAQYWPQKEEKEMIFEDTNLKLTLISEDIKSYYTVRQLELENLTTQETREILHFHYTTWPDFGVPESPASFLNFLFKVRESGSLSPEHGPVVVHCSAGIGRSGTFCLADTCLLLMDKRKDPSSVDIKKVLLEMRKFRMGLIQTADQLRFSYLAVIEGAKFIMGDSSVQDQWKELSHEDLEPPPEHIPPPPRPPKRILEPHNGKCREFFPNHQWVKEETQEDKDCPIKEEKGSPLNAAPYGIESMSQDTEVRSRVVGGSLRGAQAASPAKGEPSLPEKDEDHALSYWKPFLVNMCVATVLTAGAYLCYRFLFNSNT

[2] = molecular target: T1, Tyrosine-protein phosphatase non-receptor type 1; test: Inhibition of recombinant PTP1B (unknown origin) assessed as pNPP hydrolysis after 30 mins
[3] = molecular target: T2, Tyrosine-protein phosphatase non-receptor type 2 (Homo sapiens, UniProt P17706); test: Inhibition of TCPTP (unknown origin) assessed as pNPP hydrolysis after 30 mins
T2 sequence (P17706 whole entry): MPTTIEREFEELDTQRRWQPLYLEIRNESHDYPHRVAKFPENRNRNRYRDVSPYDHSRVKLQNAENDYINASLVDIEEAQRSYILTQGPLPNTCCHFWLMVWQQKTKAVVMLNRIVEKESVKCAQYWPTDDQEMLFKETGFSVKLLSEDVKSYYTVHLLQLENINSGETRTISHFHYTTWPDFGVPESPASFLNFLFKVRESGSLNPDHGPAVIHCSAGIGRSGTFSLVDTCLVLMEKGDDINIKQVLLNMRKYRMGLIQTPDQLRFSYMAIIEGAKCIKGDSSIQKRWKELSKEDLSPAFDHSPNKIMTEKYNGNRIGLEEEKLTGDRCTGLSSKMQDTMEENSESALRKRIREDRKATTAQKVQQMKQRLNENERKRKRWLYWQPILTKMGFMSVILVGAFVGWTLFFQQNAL

[4] = molecular target: Tyrosine-protein phosphatase non-receptor type 6 (Homo sapiens, UniProt P29350); test: Inhibition of SHP1 (unknown origin) using pNPP as substrate
Chain of Tyrosine-protein phosphatase non-receptor type 6 (P29350 whole entry): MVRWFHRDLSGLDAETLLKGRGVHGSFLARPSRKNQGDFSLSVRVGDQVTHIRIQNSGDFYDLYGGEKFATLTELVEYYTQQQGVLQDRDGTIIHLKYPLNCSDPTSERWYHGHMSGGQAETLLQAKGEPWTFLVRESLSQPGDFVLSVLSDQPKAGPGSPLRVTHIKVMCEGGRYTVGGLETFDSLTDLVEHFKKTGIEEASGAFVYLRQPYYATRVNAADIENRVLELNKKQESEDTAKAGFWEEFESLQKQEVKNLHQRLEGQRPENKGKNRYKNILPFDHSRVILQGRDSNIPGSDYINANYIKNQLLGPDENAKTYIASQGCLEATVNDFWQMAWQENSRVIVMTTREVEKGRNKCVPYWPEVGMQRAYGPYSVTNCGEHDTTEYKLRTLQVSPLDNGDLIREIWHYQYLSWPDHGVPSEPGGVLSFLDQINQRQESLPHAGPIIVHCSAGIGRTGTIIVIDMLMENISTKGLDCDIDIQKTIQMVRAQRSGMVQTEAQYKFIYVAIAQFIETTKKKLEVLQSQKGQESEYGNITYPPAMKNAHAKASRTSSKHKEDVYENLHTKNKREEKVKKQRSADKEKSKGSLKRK

| Ki [1] | IC50 [2] | IC50 [3] | IC50 [4] | Compound |
| --- | --- | --- | --- | --- |
| – | 537 nM | – | – | CCOc1cc(NS(C)(=O)=O)c(OCC)cc1CNC(=O)Nc1ccccc1 |
| – | 309 nM | 5190 nM | – | CCOc1cc(NS(C)(=O)=O)c(OCC)cc1CNC(=O)Nc1ccc(C)cc1 |
| – | 212 nM | 1360 nM | 2310 nM | CCOc1cc(NS(C)(=O)=O)c(OCC)cc1CNC(=O)Nc1ccc(Br)cc1 |
| – | 756 nM | – | – | CCOc1cc(NS(C)(=O)=O)c(OCC)cc1CNC(=O)NCc1ccccc1 |

Second part, the molecule before the results:

| Compound | Ki [1] | IC50 [2] | IC50 [3] | IC50 [4] |
| --- | --- | --- | --- | --- |
| NC(=O)[C@H](Cc1ccc(C(F)(F)P(=O)(O)O)cc1)NC(=O)[C@H](Cc1ccccc1)NC(=O)Cc1ccc(C(F)(F)P(=O)(O)O)cc1 | 1.7 nM | – | – | – |
| CCOc1cc(NS(C)(=O)=O)c(OCC)cc1CNC(=O)Nc1ccc(OC)cc1 | – | 203 nM | – | 9080 nM |
| CCOc1cc(NS(C)(=O)=O)c(OCC)cc1CNC(=O)Nc1cccc(OC)c1 | – | 2730 nM | – | – |
| CCOc1cc(NS(C)(=O)=O)c(OCC)cc1CNC(=O)Nc1ccc(OC)c(OC)c1 | – | 204 nM | – | – |

— ChEMBL document CHEMBL3593243, “Discovery of novel, potent, selective and cellular active ADC type PTP1B inhibitors via fragment-docking-oriented de novel design” (Bioorg Med Chem, 2015)
